pEC50: −log10 of the molar value. Like-named read-outs stand apart in the source and are kept apart here.

Data on 18 molecules can be found in patent US12227520B2 (priority 2019, dated 2025).

Data set [1] in a line: Cytotoxicity assay in MT-4 cells. The following applies: human, uninfected MT-4 cells, 5 days incubation; read-out: CC50. It counts as cell-based, human. The essentials: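 Infected MT-4 cells (HIV-1 IIIB, fresh 1:250 dilution of concentrated stock) or mock-infected cells exposed to compounds for 5 days at 37 °C. Viability by CellTiter-Glo luminescence; 5 μM AZT positive control, no-drug negative control. Uninfected cells used for cytotoxicity, with 10 μM puromycin as base-level cytotoxicity control.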

For another data set, the system named is HIV-1 (IIIB). The data set can be described thus: Antiviral assay in MT-4 cells (HIV MT-4 antiviral assay). It counts as cell-based. The following applies: Human immunodeficiency virus 1, IIIB, MT4, 120 h, HIV-1 (IIIB) in MT-4 cells, 5 days incubation; read-out: EC50. The essentials:
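MT-4 cells infected with HIV-1 IIIB (1:250 diluted stock) and exposed to 1:3 serially diluted compound in RPMI with 10% FBS. Viability read by CellTiter-Glo luminescence after 5 days at 37° C; mock-infected cells and 5 μM AZT as controls.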

The test system of the next data set is pLai RLuc reporter virus. The data set can be described thus: microbe, parasite or virus in culture. The format is cell-based, HIV. Put shortly: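 MT-4 cells pre-infected 2 h at 37 °C with pLai RLuc virus, then exposed to 1:3 serial dilutions of compound in RPMI/10% FBS with or without 50% human serum for 72 h at 37 °C. Renilla luminescence read-out; serum shift = EC50(HS/CCM)/EC50(CCM).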

Where [2] appears, read: Human immunodeficiency virus 1, 72 h, read-out: Antiviral Serum Shift RLuc 50% HS, HS/CCM (RPMI media, 10% FBS, 50% HS, 1% P/S), 72-h incubation.
Setting [3] is: Human immunodeficiency virus 1, 72 h, read-out: Antiviral Serum Shift RLuc CCM, CCM (RPMI media, 10% FBS, 1% P/S), 72-h incubation.

As for `C[C@@]1(O)CCCN2C[C@@H]1n1cc(C(=O)NCc3ccc(F)cc3F)c(=O)c(O)c1C2=O` [Example 14-2, (6R,7S)—N-(2,4-difluorobenzyl)-6,12-dihydroxy-6-methyl-1,11-dioxo-1,4,5,6,7,11-hexahydro-3H-2,7-methanopyrido[1,2-a][1,4]diazonine-10-carboxamide], in data set [1], the CC50 at 5 days stood at 19900 nM. Further, the pEC50 in the data set with HIV-1 (IIIB) was 8.57; in the data set with pLai RLuc reporter virus (setting [2]) it was 9.38; in the data set with pLai RLuc reporter virus (setting [3]), 9.25.

Regarding `O=C(NCc1c(F)cc(F)cc1F)c1cn2c(c(O)c1=O)C(=O)N1CCC[C@@H](F)[C@@H]2C1` [Example 15-1, (6R,7S)-6-fluoro-12-hydroxy-1,11-dioxo-N-(2,4,6-trifluorobenzyl)-1,4,5,6,7,11-hexahydro-3H-2,7-methanopyrido[1,2-a][1,4]diazonine-10-carboxamide], the CC50 at 5 days in data set [1] came out at 18300 nM. Moreover, the pEC50 is 8.77 in the data set on HIV-1 (IIIB), 7.94 in the data set on pLai RLuc reporter virus (setting [2]) and 9.49 with pLai RLuc reporter virus (setting [3]).

Turning to `O=C(NCc1c(F)cc(F)cc1F)c1cn2c(c(O)c1=O)C(=O)N1CCC[C@H](F)[C@H]2C1` [Example 15-2, (6S, 7R)-6-fluoro-12-hydroxy-1,11-dioxo-N-(2,4,6-trifluorobenzyl)-1,4,5,6,7,11-hexahydro-3H-2,7-methanopyrido[1,2-a][1,4]diazonine-10-carboxamide], in data set [1], the CC50 at 5 days worked out at 15300 nM. The results for the pEC50 in the data set on HIV-1 (IIIB), in the data set with pLai RLuc reporter virus (setting [2]) and in the data set on pLai RLuc reporter virus (setting [3]) were 8.85, 8.36 and 9.54, respectively.

For `O=C(NCc1ccc(F)cc1F)c1cn2c(c(O)c1=O)C(=O)N1CCCC(F)(F)[C@@H]2C1` [Example 16-1, (7S)-N-(2,4-difluorobenzyl)-6,6-difluoro-12-hydroxy-1,11-dioxo-1,4,5,6,7,11-hexahydro-3H-2,7-methanopyrido[1,2-a][1,4]diazonine-10-carboxamide], the cytotoxic concentration (CC50) at 5 days in data set [1] was 14400 nM. The pEC50 with HIV-1 (IIIB) is 8.68; with pLai RLuc reporter virus (setting [2]), 8.49; in the data set with pLai RLuc reporter virus (setting [3]), 9.60.

`O=C(NCc1ccc(F)cc1F)c1cn2c(c(O)c1=O)C(=O)N1CCCC(F)(F)[C@H]2C1` [Example 16-2, (7R)—N-(2,4-difluorobenzyl)-6,6-difluoro-12-hydroxy-1,11-dioxo-1,4,5,6,7,11-hexahydro-3H-2,7-methanopyrido[1,2-a][1,4]diazonine-10-carboxamide]: the CC50 at 5 days in data set [1] worked out at 36200 nM. The pEC50 in the data set with HIV-1 (IIIB) was 8.28; in the data set with pLai RLuc reporter virus (setting [2]), 7.08; with pLai RLuc reporter virus (setting [3]), 9.07.

Turning to `CC1CCCN2CC1n1cc(C(=O)NCc3ccc(F)cc3F)c(=O)c(O)c1C2=O` (stereo not drawn) [Example 17-1b, N-(2,4-difluorobenzyl)-12-hydroxy-6-methyl-1,11-dioxo-1,4,5,6,7,11-hexahydro-3H-2,7-methanopyrido[1,2-a][1,4]diazonine-10-carboxamide], in data set [1], the CC50 at 5 days was 10900 nM. Moreover, the pEC50 in the data set with HIV-1 (IIIB) is 8.92; in the data set on pLai RLuc reporter virus (setting [3]) it was 9.59; with pLai RLuc reporter virus (read-out: Antiviral Serum Shift RLuc 50% HS, HS/CCM (RPMI media, 10% FBS, 50% HS, 1% P/S), 72-h incubation) it was 8.51.

`O=C(NCc1c(F)cc(F)cc1F)c1cn2c(c(O)c1=O)C(=O)N1CCOC[C@@H]2C1` [Example 19, (7S)-12-hydroxy-1,11-dioxo-N-(2,4,6-trifluorobenzyl)-1,3,4,6,7,11-hexahydro-2,7-methanopyrido[1,2-d][1,4,7]oxadiazonine-10-carboxamide]: the 50% cytotoxic concentration (CC50) at 5 days in data set [1] was over 50000 nM. Moreover, the pEC50 was 8.40 in the data set on HIV-1 (IIIB), 8.36 in the data set with pLai RLuc reporter virus (setting [2]) and 8.92 in the data set on pLai RLuc reporter virus (setting [3]).

On to `O=C(NCc1c(F)cc(F)cc1F)c1cn2c(c(O)c1=O)C(=O)N1CCOC[C@H]2C1` [Example 20, (7R)-12-Hydroxy-1,11-dioxo-N-(2,4,6-trifluorobenzyl)-1,3,4,6,7,11-hexahydro-2,7-methanopyrido[1,2-d][1,4,7]oxadiazonine-10-carboxamide], for which the CC50 at 5 days in data set [1] was 37200 nM. Moreover, the pEC50 with HIV-1 (IIIB) is 8.25; with pLai RLuc reporter virus (setting [2]), 7.48; in the data set with pLai RLuc reporter virus (setting [3]), 8.74.

For `O=C(NCc1c(F)cc(F)cc1F)c1cn2c(c(O)c1=O)C(=O)N1CCCC[C@@H]2C1` [Example 26-1, (7R)-12-hydroxy-1,11-dioxo-N-(2,4,6-trifluorobenzyl)-1,4,5,6,7,11-hexahydro-3H-2,7-methanopyrido[1,2-a][1,4]diazonine-10-carboxamide], the CC50 at 5 days in data set [1] was determined as 15900 nM. Besides, the figures for the pEC50 in the data set with HIV-1 (IIIB), in the data set with pLai RLuc reporter virus (setting [2]) and in the data set with pLai RLuc reporter virus (setting [3]) were 8.85, 7.48 and 9.45, respectively.

With `O=C(NCc1c(F)cc(F)cc1F)c1cn2c(c(O)c1=O)C(=O)N1CCCC[C@H]2C1` [Example 26-2, (7S)-12-hydroxy-1,11-dioxo-N-(2,4,6-trifluorobenzyl)-1,4,5,6,7,11-hexahydro-3H-2,7-methanopyrido[1,2-a][1,4]diazonine-10-carboxamide], in data set [1], the CC50 at 5 days was 14400 nM. Moreover, the pEC50 in the data set on HIV-1 (IIIB) was 8.88; in the data set with pLai RLuc reporter virus (setting [2]), 8.64; with pLai RLuc reporter virus (setting [3]), 9.45.

As to `CC(C)N1CCN2CC(C1)n1cc(C(=O)NCc3ccc(F)cc3F)c(=O)c(O)c1C2=O` (stereo not drawn) [Example 34, N-(2,4-difluorobenzyl)-12-hydroxy-5-isopropyl-1,11-dioxo-1,4,5,6,7,11-hexahydro-3H-2,7-methanopyrido[1,2-a][1,4,7]triazonine-10-carboxamide], the CC50 at 5 days in data set [1] amounted to 16400 nM. In addition, the results for the pEC50 in the data set with HIV-1 (IIIB), in the data set with pLai RLuc reporter virus (setting [2]) and in the data set with pLai RLuc reporter virus (setting [3]) were 8.48, 8.02 and 8.69, respectively.

On to `O=C(NCc1ccc(F)c(Cl)c1F)c1cn2c(c(O)c1=O)C(=O)N1CCCC[C@@H]2C1` [Example 35, (7R)—N-(3-chloro-2,4-difluorobenzyl)-12-hydroxy-1,11-dioxo-1,4,5,6,7,11-hexahydro-3H-2,7-methanopyrido[1,2-a][1,4]diazonine-10-carboxamide], for which the CC50 at 5 days in data set [1] turned out to be 4960 nM. Besides, the pEC50 with HIV-1 (IIIB) was 8.82; in the data set on pLai RLuc reporter virus (setting [2]) it was 7.35; with pLai RLuc reporter virus (setting [3]) it was 9.37.

`O=C(NCc1ccc(F)cc1F)c1cn2c(c(O)c1=O)C(=O)N1CC2CCc2ccccc21` (stereo not drawn) [Example 36, N-(2,4-difluorobenzyl)-7-hydroxy-6,8-dioxo-6,8,13,14-tetrahydro-12H-5,12-methanobenzo[e]pyrido[1,2-a][1,4]diazonine-9-carboxamide]: the CC50 at 5 days in data set [1] is 17700 nM. Also, the pEC50 with HIV-1 (IIIB) was 8.70; in the data set with pLai RLuc reporter virus (setting [2]), 8.15; in the data set on pLai RLuc reporter virus (setting [3]), 9.04.

As for `O=C(NCc1c(F)cc(F)cc1F)c1cn2c(c(O)c1=O)C(=O)N1C[C@H]3CC[C@H](C3)[C@H]2C1` [Example 41-1, (4S,7R,8S)-13-hydroxy-1,12-dioxo-N-(2,4,6-trifluorobenzyl)-1,3,4,5,6,7,8,12-octahydro-2,8:4,7-dimethanopyrido[1,2-a][1,4]diazecine-11-carboxamide], the 50% cytotoxic concentration (CC50) at 5 days in data set [1] was found to be 15600 nM. Further, the figures for the pEC50 in the data set on HIV-1 (IIIB), with pLai RLuc reporter virus (setting [2]) and in the data set with pLai RLuc reporter virus (setting [3]) were 8.80, 8.18 and 9.47, respectively.

As for `O=C(NCc1c(F)cc(F)cc1F)c1cn2c(c(O)c1=O)C(=O)N1C[C@@H]3CC[C@@H](C3)[C@@H]2C1` [Example 41-2, (4R,7S,8R)-13-hydroxy-1,12-dioxo-N-(2,4,6-trifluorobenzyl)-1,3,4,5,6,7,8,12-octahydro-2,8:4,7-dimethanopyrido[1,2-a][1,4]diazecine-11-carboxamide], the CC50 at 5 days in data set [1] was determined as 14300 nM. Besides, the pEC50 in the data set on HIV-1 (IIIB) was 8.85; in the data set with pLai RLuc reporter virus (setting [2]) it was 9.01; in the data set with pLai RLuc reporter virus (setting [3]) it was 9.59.

Turning to `O=C(NCc1c(F)cc(F)cc1F)c1cn2c(c(O)c1=O)C(=O)N1C[C@@H]2CCc2c(F)cccc21` [Example 43-1, (12S)-1-fluoro-7-hydroxy-6,8-dioxo-N-(2,4,6-trifluorobenzyl)-6,8,13,14-tetrahydro-12H-5,12-methanobenzo[e]pyrido[1,2-a][1,4]diazonine-9-carboxamide], the CC50 at 5 days in data set [1] was 8100 nM. The pEC50 is 7.38 with HIV-1 (IIIB), 6.83 with pLai RLuc reporter virus (setting [2]) and 8.36 in the data set on pLai RLuc reporter virus (setting [3]).

Consider `O=C(NCc1c(F)cc(F)cc1F)c1cn2c(c(O)c1=O)C(=O)N1C[C@H]2CCc2c(F)cccc21` [Example 43-2, (12R)-1-fluoro-7-hydroxy-6,8-dioxo-N-(2,4,6-trifluorobenzyl)-6,8,13,14-tetrahydro-12H-5,12-methanobenzo[e]pyrido[1,2-a][1,4]diazonine-9-carboxamide], for which the CC50 at 5 days in data set [1] was 9150 nM. The pEC50 in the data set with HIV-1 (IIIB) was 8.81; with pLai RLuc reporter virus (setting [2]), 9.19; with pLai RLuc reporter virus (setting [3]) it was 9.54.

As to `O=C(NCc1ccc(F)cc1F)c1cn2c(c(O)c1=O)C(=O)N1CC/C=C\C[C@@H]2C1` [Example 44-1, (8R,Z)—N-(2,4-difluorobenzyl)-13-hydroxy-1,12-dioxo-1,3,4,7,8,12-hexahydro-2,8-methanopyrido[1,2-a][1,4]diazecine-11-carboxamide], the CC50 at 5 days in data set [1] is 10700 nM. Besides, the pEC50 in the data set on HIV-1 (IIIB) is 8.77; in the data set on pLai RLuc reporter virus (setting [2]), 8.63; in the data set on pLai RLuc reporter virus (setting [3]) it was 9.17.

In general, CC50 refers to the concentration at which the toxic effect on the cells reaches its halfway point.
